The values below come from ChEMBL document CHEMBL3228019, “Aminoglycoside antibiotics. 2. N,N-Dialkylkanamycins” (1979).

What all share (format): functional
Experiment [1] deals with Enterobacter cloacae. The experiment in a line: Antibacterial activity against Enterobacter cloacae 20364 expressing aminoglycoside-3'-phosphotransferase-1 assessed as growth inhibition measured after overnight incubation by two-fold broth dilution method.
In experiment [2] the test system is Enterobacter cloacae. The experiment in a line: Antibacterial activity against Enterobacter cloacae 9656 assessed as growth inhibition measured after overnight incubation by two-fold broth dilution method.
The subject of experiment [3] is Providencia rettgeri. The experiment in a line: Antibacterial activity against Proteus rettgeri 21207 expressing aminoglycoside-2'-acetyltransferase assessed as growth inhibition measured after overnight incubation by two-fold broth dilution method.
For experiment [4], the system named is Providencia rettgeri. The experiment in a line: Antibacterial activity against Proteus rettgeri 9637 assessed as growth inhibition measured after overnight incubation by two-fold broth dilution method.
For experiment [5], the system named is Pseudomonas aeruginosa. The experiment in a line: Antibacterial activity against kanamycin A/B impermeable Pseudomonas aeruginosa 21509 assessed as growth inhibition measured after overnight incubation by two-fold broth dilution method.
Experiment [6] deals with Pseudomonas aeruginosa. The experiment in a line: Antibacterial activity against Pseudomonas aeruginosa 20653 expressing aminoglycoside-3'-phosphotransferase-4 assessed as growth inhibition measured after overnight incubation by two-fold broth dilution method.
The test system of experiment [7] is Escherichia coli. The experiment in a line: Antibacterial activity against Escherichia coli 21218 expressing aminoglycoside-6'-acetyltransferase assessed as growth inhibition measured after overnight incubation by two-fold broth dilution method.
For experiment [8], the system named is Staphylococcus aureus. The experiment in a line: Antibacterial activity against Staphylococcus aureus 20240 expressing aminoglycoside-3'-phosphotransferase-4 assessed as growth inhibition measured after overnight incubation by two-fold broth dilution method.
The subject of experiment [9] is Pseudomonas aeruginosa. The experiment in a line: Antibacterial activity against Pseudomonas aeruginosa 9843a assessed as growth inhibition measured after overnight incubation by two-fold broth dilution method.
For experiment [10], the system named is Staphylococcus aureus. The experiment in a line: Antibacterial activity against Staphylococcus aureus 9537 assessed as growth inhibition measured after overnight incubation by two-fold broth dilution method.
In the next experiment the test system is Klebsiella pneumoniae. The experiment in a line: Antibacterial activity against Klebsiella pneumoniae 9977 assessed as growth inhibition measured after overnight incubation by two-fold broth dilution method.
The subject of experiment [11] is Escherichia coli. The experiment in a line: Antibacterial activity against Escherichia coli 9632 assessed as growth inhibition measured after overnight incubation by two-fold broth dilution method.
In experiment [12] the test system is Pseudomonas aeruginosa. The experiment in a line: Antibacterial activity against Pseudomonas aeruginosa 20897 expressing aminoglycoside-3'-phosphotransferase-1 and aminoglycoside-6'-acetyltransferase assessed as growth inhibition measured after overnight incubation by two-fold broth dilution method.
For experiment [13], the system named is Escherichia coli. The experiment in a line: Antibacterial activity against Escherichia coli 20665 expressing aminoglycoside-3'-phosphotransferase-1 assessed as growth inhibition measured after overnight incubation by two-fold broth dilution method.
Experiment [14] has as its system Pseudomonas aeruginosa. The experiment in a line: Antibacterial activity against Pseudomonas aeruginosa 20610 expressing aminoglycoside-3'-phosphotransferase and aminoglycoside-3-acetyltransferase-1 assessed as growth inhibition measured after overnight incubation by two-fold broth dilution method.
The test system of experiment [15] is Escherichia coli. The experiment in a line: Antibacterial activity against Escherichia coli 20732 expressing aminoglycoside-2''-nucleotidyltransferase assessed as growth inhibition measured after overnight incubation by two-fold broth dilution method.

Values after ≈ are worked out from the molar mass of the structure shown.

Take `CNC[C@H]1O[C@H](O[C@H]2[C@H](O)[C@@H](O[C@H]3O[C@H](CO)[C@@H](O)[C@H](NC)[C@H]3O)[C@H](N)C[C@@H]2N)[C@H](N)[C@@H](O)[C@@H]1O`: the MIC in the experiment with Enterobacter cloacae [1] stood at 63 mg/L (≈ 123 µM); in the experiment with Enterobacter cloacae [2], 8 mg/L (≈ 15.6 µM); with Providencia rettgeri [3] it was 63 mg/L (≈ 123 µM); in the experiment on Providencia rettgeri [4] it was 16 mg/L (≈ 31.3 µM); in the experiment on Pseudomonas aeruginosa [5] it was 16 mg/L (≈ 31.3 µM); in the experiment on Pseudomonas aeruginosa [6], 8 mg/L (≈ 15.6 µM). For the same compound, the minimal inhibitory concentration (MIC) with Escherichia coli [7] came to 63 mg/L (≈ 123 µM); with Staphylococcus aureus [8], 8 mg/L (≈ 15.6 µM); with Pseudomonas aeruginosa [9], 8 mg/L (≈ 15.6 µM); with Staphylococcus aureus [10], 4 mg/L (≈ 7.82 µM); in the experiment with Klebsiella pneumoniae it was 4 mg/L (≈ 7.82 µM); in the experiment on Escherichia coli [11], 16 mg/L (≈ 31.3 µM). Also, the MIC in the experiment on Pseudomonas aeruginosa [12] stood at 8 mg/L (≈ 15.6 µM); in the experiment on Escherichia coli [13], 63 mg/L (≈ 123 µM); in the experiment with Pseudomonas aeruginosa [14], 8 mg/L (≈ 15.6 µM); with Escherichia coli [15], 63 mg/L (≈ 123 µM).

Regarding `CNC[C@H]1O[C@H](O[C@H]2[C@H](O)[C@@H](O[C@H]3O[C@H](CO)[C@@H](O)[C@H](NC)[C@H]3O)[C@H](N)C[C@@H]2N)[C@H](O)[C@@H](O)[C@@H]1O`, the minimum inhibitory concentration (MIC) with Enterobacter cloacae [1], in the experiment on Enterobacter cloacae [2], in the experiment with Providencia rettgeri [3], with Providencia rettgeri [4], in the experiment with Pseudomonas aeruginosa [5] and in the experiment with Pseudomonas aeruginosa [6] was greater than 125 mg/L each time. The MIC in the experiment on Escherichia coli [7] was 125 mg/L (≈ 244 µM); in the experiment with Staphylococcus aureus [8], greater than 125 mg/L; in the experiment with Pseudomonas aeruginosa [9], greater than 125 mg/L; with Staphylococcus aureus [10], greater than 125 mg/L; in the experiment with Klebsiella pneumoniae it was greater than 125 mg/L; in the experiment on Escherichia coli [11], greater than 125 mg/L. For the same compound, the MIC in the experiment with Pseudomonas aeruginosa [12], in the experiment on Escherichia coli [13], in the experiment with Pseudomonas aeruginosa [14] and in the experiment with Escherichia coli [15] was greater than 125 mg/L each time.

As to `NC[C@H]1O[C@H](O[C@H]2[C@H](O)[C@@H](O[C@H]3O[C@H](CO)[C@@H](O)[C@H](N)[C@H]3O)[C@H](N)C[C@@H]2N)[C@H](N)[C@@H](O)[C@@H]1O` [BEKANAMYCIN], the minimal inhibitory concentration (MIC) with Enterobacter cloacae [1] is greater than 125 mg/L; in the experiment on Enterobacter cloacae [2], 2 mg/L (≈ 4.14 µM); in the experiment with Providencia rettgeri [3] it was 32 mg/L (≈ 66.2 µM); with Providencia rettgeri [4], 0.5 mg/L (≈ 1.03 µM); with Pseudomonas aeruginosa [5] it was greater than 125 mg/L; in the experiment with Pseudomonas aeruginosa [6], greater than 125 mg/L. Also, the minimum inhibitory concentration (MIC) with Escherichia coli [7] was 32 mg/L (≈ 66.2 µM); in the experiment with Staphylococcus aureus [8], greater than 125 mg/L; with Pseudomonas aeruginosa [9], 63 mg/L (≈ 130 µM); in the experiment on Staphylococcus aureus [10], 0.5 mg/L (≈ 1.03 µM); in the experiment on Klebsiella pneumoniae it was 0.25 mg/L (≈ 0.517 µM); in the experiment with Escherichia coli [11], 2 mg/L (≈ 4.14 µM). For the same compound, the MIC with Pseudomonas aeruginosa [12] was greater than 125 mg/L; in the experiment on Escherichia coli [13], greater than 125 mg/L; in the experiment with Pseudomonas aeruginosa [14] it was 32 mg/L (≈ 66.2 µM); with Escherichia coli [15] it was 32 mg/L (≈ 66.2 µM).

As for `N[C@@H]1C[C@H](N)[C@@H](O[C@H]2O[C@@H]3CNC(=O)O[C@H]3[C@H](O)[C@H]2O)[C@H](O)[C@H]1O[C@H]1O[C@H](CO)[C@@H](O)[C@@H]2NC(=O)O[C@@H]12`, the minimal inhibitory concentration (MIC) came out at 125 mg/L (≈ 233 µM) in the experiment on Enterobacter cloacae [1]; 63 mg/L (≈ 117 µM) in the experiment on Enterobacter cloacae [2]; 125 mg/L (≈ 233 µM) with Providencia rettgeri [3]; 63 mg/L (≈ 117 µM) in the experiment on Providencia rettgeri [4]; 32 mg/L (≈ 59.6 µM) in the experiment with Pseudomonas aeruginosa [5]; 32 mg/L (≈ 59.6 µM) with Pseudomonas aeruginosa [6]. In addition, the MIC in the experiment on Escherichia coli [7] turned out to be 63 mg/L (≈ 117 µM); in the experiment with Staphylococcus aureus [8], 32 mg/L (≈ 59.6 µM); in the experiment on Pseudomonas aeruginosa [9] it was 32 mg/L (≈ 59.6 µM); in the experiment on Staphylococcus aureus [10], 32 mg/L (≈ 59.6 µM); in the experiment on Klebsiella pneumoniae, 63 mg/L (≈ 117 µM); in the experiment on Escherichia coli [11] it was 32 mg/L (≈ 59.6 µM). The MIC in the experiment on Pseudomonas aeruginosa [12] was found to be 32 mg/L (≈ 59.6 µM); in the experiment with Escherichia coli [13], 63 mg/L (≈ 117 µM); with Pseudomonas aeruginosa [14], 32 mg/L (≈ 59.6 µM); in the experiment with Escherichia coli [15], 125 mg/L (≈ 233 µM).

With `CCNC[C@H]1O[C@H](O[C@H]2[C@H](O)[C@@H](O[C@H]3O[C@H](CO)[C@@H](O)[C@H](NCC)[C@H]3O)[C@H](N)C[C@@H]2N)[C@H](O)[C@@H](O)[C@@H]1O`, the MIC in the experiment on Enterobacter cloacae [1] was greater than 125 mg/L; in the experiment with Enterobacter cloacae [2], 125 mg/L (≈ 231 µM); in the experiment with Providencia rettgeri [3] it was 4 mg/L (≈ 7.4 µM); with Providencia rettgeri [4], 32 mg/L (≈ 59.2 µM); in the experiment with Pseudomonas aeruginosa [5], greater than 125 mg/L; in the experiment with Pseudomonas aeruginosa [6], greater than 125 mg/L. Also, the minimum inhibitory concentration (MIC) is greater than 125 mg/L in the experiment with Escherichia coli [7]; greater than 125 mg/L with Staphylococcus aureus [8]; greater than 125 mg/L in the experiment with Pseudomonas aeruginosa [9]; 63 mg/L (≈ 117 µM) with Staphylococcus aureus [10]; greater than 125 mg/L in the experiment with Klebsiella pneumoniae; greater than 125 mg/L with Escherichia coli [11]. Further, the MIC in the experiment with Pseudomonas aeruginosa [12], in the experiment on Escherichia coli [13], with Pseudomonas aeruginosa [14] and in the experiment on Escherichia coli [15] was greater than 125 mg/L each time.

Turning to `NC[C@@H]1O[C@@H](O[C@H]2[C@H](O)[C@@H](O[C@H]3O[C@H](CO)[C@@H](O)[C@H](N)[C@H]3O)[C@H](N)C[C@@H]2N)[C@@H](O)[C@H](O)[C@H]1O` [KANAMYCIN A], the MIC is greater than 125 mg/L in the experiment on Enterobacter cloacae [1]; 4 mg/L (≈ 8.26 µM) with Enterobacter cloacae [2]; 8 mg/L (≈ 16.5 µM) with Providencia rettgeri [3]; 0.5 mg/L (≈ 1.03 µM) with Providencia rettgeri [4]; greater than 125 mg/L in the experiment on Pseudomonas aeruginosa [5]; greater than 125 mg/L in the experiment with Pseudomonas aeruginosa [6]. Besides, the MIC with Escherichia coli [7] is greater than 125 mg/L; with Staphylococcus aureus [8], greater than 125 mg/L; with Pseudomonas aeruginosa [9], 63 mg/L (≈ 130 µM); with Staphylococcus aureus [10], 1 mg/L (≈ 2.06 µM); in the experiment on Klebsiella pneumoniae, 0.25 mg/L (≈ 0.516 µM); in the experiment on Escherichia coli [11], 4 mg/L (≈ 8.26 µM). The minimum inhibitory concentration (MIC) was greater than 125 mg/L in the experiment on Pseudomonas aeruginosa [12], greater than 125 mg/L in the experiment on Escherichia coli [13], 32 mg/L (≈ 66 µM) in the experiment on Pseudomonas aeruginosa [14] and 125 mg/L (≈ 258 µM) with Escherichia coli [15].
